For 74 compounds, cytotoxicity results are on record in ChEMBL document CHEMBL3507680, “University of Dundee, Gates Library screen for HepG2 cell viability”.

Molecules are shown by their SMILES.

The series can be described thus: Human HepG2 cell viability assay in 384 well format. Set-up: dose 125 nL, time 70.5 hour; cytotoxicity at 70.5 h: concentration not given beside the values. In kind it is toxicity, cell-based. The settings on record: HepG2 cells, read-out: Inhibition.
Regarding `CC(Nc1cccc(F)c1C#N)c1cccc(S(N)(=O)=O)c1` (centres undefined), the cytotoxicity at 70.5 h is -8.67%. The result for `COCCCN1Cc2cccc(NC(=O)c3ccccc3Cl)c2C1` reads 12.9%; that for `Cc1nc(C)c(C(C)NCc2c(C(C)C)nn(C)c2N(C)C)s1` (centres undefined), -0.665%; that for `N#CC1(NC(=O)Cc2cc(Cl)c3c(c2)OCCO3)CCC1`, -10.5%.

As for `CN(Cc1ccccn1)C(=O)C(c1ccccc1)N1CCSCC1` (centres undefined), the cytotoxicity at 70.5 h was -7.59%. The same measure for `COCCCOc1ccc(C(=O)N(C)Cc2cccc(O)c2)cn1`: -8.37%; for `COCCCN(C)c1cc(C(F)(F)F)nc(-c2cccnc2)n1`: -5.74%. As for `COc1cccc(C2(C(=O)NC3CCc4nccn4C3)CCCC2)c1` (centres undefined), the cytotoxicity at 70.5 h was found to be 10.9%. With `CN(Cc1cscn1)C(=O)C(c1ccccc1)N1CCSCC1` (centres undefined), the cytotoxicity at 70.5 h was 21.5%.

As to `NS(=O)(=O)CCCNC(=O)c1cnc(-c2ccsc2)s1`, the cytotoxicity at 70.5 h was -6.58%.

As to `CC(Nc1ccc(C#N)cc1F)c1cccc(S(N)(=O)=O)c1` (centres undefined), the cytotoxicity at 70.5 h amounted to 16.2%.

`Cc1ccc(F)c(S(=O)(=O)NCCc2nnc[nH]2)c1`: the cytotoxicity at 70.5 h was 15.4%.

For `COc1cc(NC(=O)NCc2nccn2C)ccc1Br`, the cytotoxicity at 70.5 h was -4.24%.

In the case of `O=C(O)c1cc(/C=C/c2cccc3ccccc23)ncn1`, the cytotoxicity at 70.5 h was -7.2%.

As to `CC(O)CN(C)c1cc(C(F)(F)F)nc(-c2cccnc2)n1` (centres undefined), the cytotoxicity at 70.5 h was -3.49%.

Regarding `CCN(CC)S(=O)(=O)c1ccc(CNC(=O)N2CCC(C#N)CC2)cc1`, the cytotoxicity at 70.5 h was -6.61%. The same measure for `Cc1cnn(CCNCc2c(C(C)C)nn(C)c2Cl)c1`: -2.72%; for `COc1ccc(C)cc1CN1CCn2cccc2C1C` (centres undefined): -1.19%; for `COc1c(CNC(C)c2sc(C)nc2C)c(C(C)C)nn1C` (centres undefined): 23.8%. The result for `COc1ccc(C(C)CCNC2CCN(c3ccccn3)CC2)cc1` (centres undefined) reads 22%; that for `COCC1CCCN(c2cncc(OCc3ccccc3)n2)C1` (centres undefined), 6.39%; that for `Cc1cc(CNS(=O)(=O)CCCC#N)ccc1N(C)C`, 0.915%. The same measure for `c1csc(N2CCN(c3ncnc4sccc34)CC2)n1`: -7.71%; for `COc1cc(C(=O)O)ccc1OCC(=O)NCCc1ccccc1`: -2.71%.

Take `CCCN(CC(=O)NC)C(=O)c1ccc(-c2nc(C)cs2)cc1`: the cytotoxicity at 70.5 h was -10.1%. The result for `CC(=O)N1CCC(NC(=O)CN2CCCc3c(F)ccc(C)c32)CC1` reads -4.42%; that for `Cc1cc(C)n(C2CN(CCC(N)=O)C2)n1`, 0.833%. As for `COc1ccsc1C(=O)NC1CCN(c2cccc(F)c2)CC1`, the cytotoxicity at 70.5 h was found to be 21.7%. The result for `CCCn1cc(NC(=O)Nc2ccc(F)c(C(=O)NC)c2)cn1` reads -4.76%; that for `COc1ncnc(N)c1CNCCc1ccc(-n2cccn2)cc1`, -1.5%; that for `NC(=O)CC1CCN(c2cncc(OCc3ccccc3)n2)CC1`, -5.14%. The result for `NC(=O)CC1CCCN(c2cncc(SCc3ccccc3)n2)C1` (centres undefined) reads -1.35%; that for `CN(C)c1nc(CNC(=O)Nc2cccc([S+](C)[O-])c2)cs1` (centres undefined), -5.56%; that for `CCN(CC(=O)N(C)C)C(=O)c1ccc(-c2nc(C)cs2)cc1`, -4.36%. The same measure for `CCc1nnc(C(C)N2CCN(CCC(=O)NC3CC3)CC2)o1` (centres undefined): 22%; for `Cc1c(C(=O)N2CCCN(S(C)(=O)=O)CC2)cnn1C`: -3.33%; for `FC(F)(F)c1csc(N2CCN(Cc3ccccn3)CC2)n1`: -6.63%. On to `CC(O)CN1CCN(Cc2coc(-c3ccccc3)n2)CC1` (centres undefined), for which the cytotoxicity at 70.5 h is -7.79%. `CCN(CC(=O)NC(C)C)C(=O)c1csc(Cc2ccccc2)n1`: the cytotoxicity at 70.5 h is -9.03%.

`NC(=O)[C@@H]1Cc2ccccc2CN1CCC(=O)N1CCOCC1`: the cytotoxicity at 70.5 h is -5.31%. The result for `OC(CNCCn1cccn1)COc1cccc(C(F)(F)F)c1` (centres undefined) reads -1.44%; that for `OC(CNCCn1cccn1)COc1ccc2ccccc2c1` (centres undefined), -0.315%.

Take `OC(CNCCn1cccn1)COc1ccc(F)cc1` (centres undefined): the cytotoxicity at 70.5 h was found to be 5.18%. As for `O=C(Cc1cccs1)NCC1(O)CCSC1` (centres undefined), the cytotoxicity at 70.5 h is -5.51%. Regarding `Cc1cccc(NC(=O)CN(C)C(=O)c2ccc(-n3cccc3)nc2)n1`, the cytotoxicity at 70.5 h was -4.2%. The same measure for `O=C(c1ccco1)N(CC(F)(F)F)C1CCCOC1` (centres undefined): -2.62%; for `O=C(NC1CCC(O)CC1)c1cnc2c(cnn2C2CCCC2)c1` (centres undefined): -0.508%.

Consider `Cc1noc(C)c1CNc1cccc(C(=O)N(C)c2ccccc2)c1`, for which the cytotoxicity at 70.5 h was determined as 14.2%.

With `COCC(C)NC(=O)CN1CCC2(CC1)OCCO2` (centres undefined), the cytotoxicity at 70.5 h was -3.81%.

Take `COC(=O)CN(CC1CCOC1)C1CC1` (centres undefined): the cytotoxicity at 70.5 h was -3.42%. Turning to `CCOC(=O)CCCN1CCCC(C(=O)Nc2ccc(Cl)cn2)C1` (centres undefined), the cytotoxicity at 70.5 h stood at 15.1%. The same measure for `CCC(C)NC(=O)CN1CCC2(CC1)OCCO2` (centres undefined): 3.04%. The result for `O=C(Nc1nccs1)C1CCCN1Cc1ccccn1` (centres undefined) reads -5.74%. The same measure for `CC(C)(O)CN1CCN(C(=O)c2cccn2Cc2cccnc2)CC1`: -8.17%; for `Cc1nnc(NC(=O)NCC(C)N2CCOCC2)s1` (centres undefined): -11%; for `CCCn1cc(NC(=O)c2ccc(NC(=O)NC3CC3)cc2)ccc1=O`: -10.8%. With `CC(=O)Nc1ccc(CNCc2ccc(CS(C)(=O)=O)cc2)cc1`, the cytotoxicity at 70.5 h stood at 15.3%. The result for `O=C(c1sccc1C1CC1)N1CCN(c2ncccn2)CC1` reads -0.605%; that for `CCCn1cc(NC(=O)c2ccncc2)ccc1=O`, -8.23%; that for `O=C(c1sccc1C1CC1)N1CCN(c2cnccn2)CC1`, -11.8%.

Regarding `CN(Cc1cccc(C#N)c1)c1ncc(C(N)=O)cc1Cl`, the cytotoxicity at 70.5 h was -8.78%. The result for `CCN1CCN(C(C)CNC(=O)Nc2nc3ccccc3s2)CC1` (centres undefined) reads -7.3%; that for `O=C(c1sccc1C1CC1)N1CCCN(c2cccnn2)CC1`, -7.16%; that for `COC(=O)c1sc2cccc(F)c2c1CNC(=O)C1CCOC1` (centres undefined), -2.33%. The result for `Cc1csc(C2(NC(=O)CCNC(=O)C(C)(C)C)CCCC2)n1` reads 0.031%; that for `COC(=O)C1CN(Cc2nc(C(C)(C)C)cs2)C[C@@H](C)O1` (some centres undefined), -7.31%; that for `CC(=O)Nc1ccc(CNc2cccc(CS(C)(=O)=O)c2)cc1`, -3.91%. The same measure for `CCOc1cncc(N2CCN(c3ccccc3O)CC2)n1`: 13.6%; for `O=C(c1ccc(-n2cccn2)c(F)c1)N1CCCN2CCCC2C1` (centres undefined): -8.24%; for `CC(C)(C)c1cnc(CN2CCC(CO)CC2)o1`: -3.87%. As for `CCOCC(=O)NC1(c2nc(C)cs2)CCCC1`, the cytotoxicity at 70.5 h was -2.89%. The same measure for `CCc1nc2c(s1)C(N(C)C(C)=O)CCC2` (centres undefined): -7.14%. For `COc1ccc(CCN(C)CCS(=O)(=O)c2ccc(Cl)cc2)cc1OC`, the cytotoxicity at 70.5 h was -13.8%. The result for `CCNc1ccnc(CN2CCCC2C(=O)Nc2nccs2)c1` (centres undefined) reads 8.54%.
